Measurements reported in patent publication US9139567B2, “Arylpyrazole ethers as inhibitors of leukotriene A4 hydrolase” (Boehringer Ingelheim International GmbH, priority 2011, dated 2015).

Assays:
[1] = target: T1, human LTA4 hydrolase (Homo sapiens, UniProt P09960); assay: LTA4H enzyme assay (cleavage of Arg-AMC, fluorescence); format: biochemical; settings: LTA4H enzyme 1 nM, Arg-AMC substrate 50 μM, room temperature 1 h
T1 sequence (P09960 1-611): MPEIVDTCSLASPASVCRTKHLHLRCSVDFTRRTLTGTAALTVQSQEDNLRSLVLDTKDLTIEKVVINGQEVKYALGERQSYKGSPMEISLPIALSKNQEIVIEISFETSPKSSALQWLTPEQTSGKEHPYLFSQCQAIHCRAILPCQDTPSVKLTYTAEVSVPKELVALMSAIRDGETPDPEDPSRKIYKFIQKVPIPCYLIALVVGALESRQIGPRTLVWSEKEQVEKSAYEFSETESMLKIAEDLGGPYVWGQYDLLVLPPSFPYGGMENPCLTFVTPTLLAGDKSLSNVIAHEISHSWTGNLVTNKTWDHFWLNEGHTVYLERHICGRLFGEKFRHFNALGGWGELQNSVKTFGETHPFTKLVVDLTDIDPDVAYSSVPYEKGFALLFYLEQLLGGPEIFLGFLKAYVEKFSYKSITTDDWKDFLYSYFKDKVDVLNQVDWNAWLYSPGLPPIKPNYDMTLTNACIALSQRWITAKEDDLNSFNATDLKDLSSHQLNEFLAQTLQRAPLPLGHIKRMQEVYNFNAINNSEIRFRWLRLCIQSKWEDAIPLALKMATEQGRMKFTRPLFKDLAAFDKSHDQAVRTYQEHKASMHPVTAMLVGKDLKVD
Procedure: Compounds are assessed for the ability to interact with human LTA4 hydrolase in an enzymatic assay that measures the ability of the enzyme to cleave the peptide bond of arginyl-aminomethylcoumarin (Arg-AMC). LTA4H Enzyme (1 nM final), Arg-AMC substrate (50 μM final), and compound are combined in a reaction buffer (50 mM Tris-HCl (pH 7.5), 100 mM KCl, 0.5% bovine serum albumin) at room temperature for 1 h. The formation of product is assessed by measuring the fluorescence of aminomethylcoumarin product (excitation wavelength 380 nm/emission wavelength 460 nm).

[2] = system: LTB4 production in human whole blood; assay: LTB4 production inhibition assay in human whole blood (calcimycin-stimulated); format: cell-based; settings: heparinized human whole blood, 15 min 37° C., calcimycin 20 μM 30 min, plasma LTB4 by HTRF
Procedure: Compounds of the invention are additionally tested in a human whole blood assay to determine their ability to inhibit the synthesis of LTB4 in a cellular system. Compounds are combined with heparinized human whole blood and incubated for 15 minutes at 37° C. Calcimycin (20 μM final, prepared in phosphate-buffered saline, pH 7.4) is then added and the mixture is incubated for another 30 minutes at 37° C. The samples are centrifuged for 5 min at low speed (1500×g) and the plasma layer is removed. Plasma LTB4 concentrations are then measured using an antibody-based homogenous time-resolved fluorescence method (CisBio, Bedford, Mass.).

| SMILES | IC50 [1] [µM] | IC50 [2] [µM] |
| --- | --- | --- |
| CC(Cc1ccccc1)Oc1ccc(Oc2ccc(-c3ccn[nH]3)cc2)cc1 (stereo not shown) [Example 31, 5-{4-[4-(1-methyl-2-phenylethoxy)phenoxy]phenyl}-1H-pyrazole] | 0.9 | ≥ 5 |
| CC(COc1ccc(Oc2ccc(-c3ccn[nH]3)cc2)cc1)c1ccccc1 (stereo not shown) [Example 32, 5-{4-[4-(2-phenylpropoxy)phenoxy]phenyl}-1H-pyrazole] | 0.36 | ≥ 5 |
| c1ccc(CCOc2ccc(Oc3ccc(-c4ccn[nH]4)cc3)cc2)nc1 [Example 33, 2-(2-{4-[4-(1H-pyrazol-5-yl)phenoxy]phenoxy}ethyl)pyridine] | 0.0052 | 3.36 |
| c1cncc(COc2ccc(Oc3ccc(-c4ccn[nH]4)cc3)cc2)c1 [Example 34, 3-({4-[4-(1H-pyrazol-5-yl)phenoxy]phenoxy}methyl)pyridine] | 0.0015 | 2.54 |
| c1cc(COc2ccc(Oc3ccc(-c4ccn[nH]4)cc3)cc2)ccn1 [Example 35, 4-({4-[4-(1H-pyrazol-5-yl)phenoxy]phenoxy}methyl)pyridine] | 0.0039 | 1.78 |
| c1cc(-c2ccc(Oc3ccc(OCc4cn5ccsc5n4)cc3)cc2)[nH]n1 [Example 36, 6-({4-[4-(1H-pyrazol-5-yl)phenoxy]phenoxy}methyl)imidazo[2,1-b][1,3]thiazole] | 0.006 | 4.5 |
| CS(=O)(=O)c1ccc(COc2ccc(Oc3ccc(-c4ccn[nH]4)cc3)cc2)cc1 [Example 37, 5-[4-(4-{[4-(methylsulfonyl)benzyl]oxy}phenoxy)phenyl]-1H-pyrazole] | 0.0035 | 2.09 |
| c1cc(-c2ccc(Oc3ccc(OCc4cscn4)cc3)cc2)[nH]n1 [Example 38, 4-{4-[4-(2H-Pyrazol-3-yl)-phenoxy]-phenoxymethyl}-thiazole] | 0.0033 | ≥ 5 |
| c1cc(-c2ccc(Oc3ccc(OCc4cnc5[nH]ccc5c4)cc3)cc2)[nH]n1 [Example 39, 5-({4-[4-(1H-pyrazol-5-yl)phenoxy]phenoxy}methyl)-1H-pyrrolo[2,3-b]pyridine] | 0.0076 | ≥ 5 |
| c1cc(CCOc2ccc(Oc3ccc(-c4ccn[nH]4)cc3)cc2)ccn1 [Example 40, 4-(2-{4-[4-(1H-pyrazol-5-yl)phenoxy]phenoxy}ethyl)pyridine] | 0.0032 | 3.12 |
| c1ccc2[nH]c(NCCOc3ccc(Oc4ccc(-c5ccn[nH]5)cc4)cc3)nc2c1 [Example 41, N-(2-{4-[4-(1H-pyrazol-5-yl)phenoxy]phenoxy}ethyl)-1H-benzimidazol-2-amine] | 0.0002 | 0.673 |
| Cc1nccn1CCOc1ccc(Oc2ccc(-c3ccn[nH]3)cc2)cc1 [Example 42, 5-(4-{4-[2-(2-methyl-1H-imidazol-1-yl)ethoxy]phenoxy]phenyl)-1H-pyrazole] | 0.0003 | 0.172 |
| c1ccc2c(c1)ncn2CCOc1ccc(Oc2ccc(-c3ccn[nH]3)cc2)cc1 [Example 43, 1-(2-{4-[4-(1H-pyrazol-5-yl)phenoxy]phenoxy}ethyl)-1H-benzimidazole] | 0.0013 | 1.91 |
| c1cnc(COc2ccc(Oc3ccc(-c4ccn[nH]4)cc3)cc2)cn1 [Example 44, 2-({4-[4-(1H-pyrazol-5-yl)phenoxy]phenoxy}methyl)pyrazine] | 0.0011 | 0.766 |
| c1ccc2[nH]c(CCOc3ccc(Oc4ccc(-c5ccn[nH]5)cc4)cc3)nc2c1 [Example 45, 2-(2-{4-[4-(1H-pyrazol-5-yl)phenoxy]phenoxy}ethyl)-1H-benzimidazole] | 0.0017 | ≥ 5 |
| c1cc(-c2ccc(Oc3ccc(OCc4cc[nH]n4)cc3)cc2)[nH]n1 [Example 46, 3-({4-[4-(1H-pyrazol-5-yl)phenoxy]phenoxy}methyl)-1H-pyrazole] | 0.0061 | 4.9 |
| c1cnc2c(c1)CCC2Oc1ccc(Oc2ccc(-c3ccn[nH]3)cc2)cc1 (stereo not shown) [Example 47, 7-{4-[4-(1H-pyrazol-5-yl)phenoxy]phenoxy}-6,7-dihydro-5H-cyclopenta[b]pyridine] | 0.0824 | ≥ 5 |
| CC(Oc1ccc(Oc2ccc(-c3ccn[nH]3)cc2)cc1)c1ccncc1 (stereo not shown) [Example 48, 4-(1-{4-[4-(1H-pyrazol-5-yl)phenoxy]phenoxy}ethyl)pyridine] | 0.0169 | 3.92 |

| SMILES | IC50 [1] [µM] | IC50 [2] [µM] |
| --- | --- | --- |
| c1cc(-c2ccc(Oc3ccc(OCc4cnc5cc[nH]c5c4)cc3)cc2)[nH]n1 [Example 49, 6-({4-[4-(1H-pyrazol-5-yl)phenoxy]phenoxy}methyl)-1H-pyrrolo[3,2-b]pyridine] | 0.0012 | 3.14 |
| c1cnn(CCCOc2ccc(Oc3ccc(-c4ccn[nH]4)cc3)cc2)c1 [Example 50, 1-(3-{4-[4-(1H-pyrazol-5-yl)phenoxy]phenoxy}propyl)-1H-pyrazole] | 0.0012 | 2.11 |
| CC(CCOc1ccc(Oc2ccc(-c3ccn[nH]3)cc2)cc1)n1cccn1 (stereo not shown) [Example 51, 1-(1-methyl-3-{4-[4-(1H-pyrazol-5-yl)phenoxy]phenoxy}propyl)-1H-pyrazole] | 0.004 | 3.11 |
| c1cc(-c2ccc(Oc3ccc(OCc4ccno4)cc3)cc2)[nH]n1 [Example 52, 5-({4-[4-(1H-pyrazol-5-yl)phenoxy]phenoxy}methyl)isoxazole] | 0.0041 | 2.6 |
| c1ccn2cc(COc3ccc(Oc4ccc(-c5ccn[nH]5)cc4)cc3)nc2c1 [Example 53, 2-({4-[4-(1H-pyrazol-5-yl)phenoxy]phenoxy}methyl)imidazo[1,2-a]pyridine] | 0.0037 | ≥ 5 |
| c1cc(-c2ccc(Oc3ccc(OCc4cocn4)cc3)cc2)[nH]n1 [Example 54, 4-({4-[4-(1H-pyrazol-5-yl)phenoxy]phenoxy}methyl)-1,3-oxazole] | 0.0042 | ≥ 5 |
| c1cc(-c2ccc(Oc3ccc(OCCc4cn[nH]c4)cc3)cc2)[nH]n1 [Example 55, 4-(2-{4-[4-(1H-pyrazol-5-yl)phenoxy]phenoxy}ethyl)-1H-pyrazole] | 0.007 | 2.5 |
| Cn1ncnc1COc1ccc(Oc2ccc(-c3ccn[nH]3)cc2)cc1 [Example 56, 1-methyl-5-({4-[4-(1H-pyrazol-5-yl)phenoxy]phenoxy}methyl)-1H-1,2,4-triazole] | 0.0006 | ≥ 5 |
| Cn1nc(COc2ccc(Oc3ccc(-c4ccn[nH]4)cc3)cc2)cc1-c1ccco1 [Example 57, 5-(2-furyl)-1-methyl-3-({4-[4-(1H-pyrazol-5-yl)phenoxy]phenoxy}methyl)-1H-pyrazole] | 0.011 | ≥ 5 |
| C[C@H](Oc1ccc(Oc2ccc(-c3ccn[nH]3)cc2)cc1)c1ccccn1 [Example 58, 2-[(1S)-1-{4-[4-(1H-pyrazol-5-yl)phenoxy]phenoxy}ethyl]pyridine] | 0.044 | ≥ 5 |
| C[C@@H](Oc1ccc(Oc2ccc(-c3ccn[nH]3)cc2)cc1)c1ccccn1 [Example 59, 2-[(1R)-1-{4-[4-(1H-pyrazol-5-yl)phenoxy]phenoxy}ethyl]pyridine] | 0.0427 | ≥ 5 |
| Cc1nc(COc2ccc(Oc3ccc(-c4ccn[nH]4)cc3)cc2)co1 [Example 60, 2-methyl-4-({4-[4-(1H-pyrazol-5-yl)phenoxy]phenoxy}methyl)-1,3-oxazole] | 0.0039 | ≥ 5 |
| Cn1nccc1COc1ccc(Oc2ccc(-c3ccn[nH]3)cc2)cc1 [Example 61, 1-methyl-5-({4-[4-(1H-pyrazol-5-yl)phenoxy]phenoxy}methyl)-1H-pyrazole] | 0.0014 | 1.12 |
| c1ccc(COc2ccc(Oc3ccc(-c4ccn[nH]4)cc3)cc2)cc1 [Example 62, 5-{4-[4-(benzyloxy)phenoxy]phenyl}-1H-pyrazole] | 0.142 | ≥ 5 |
| c1cc(-c2ccc(Oc3ccc(OCc4ccoc4)cc3)cc2)[nH]n1 [Example 63, 5-{4-[4-(3-furylmethoxy)phenoxy]phenyl}-1H-pyrazole] | 0.0529 | ≥ 5 |
| c1ccc2sc(COc3ccc(Oc4ccc(-c5ccn[nH]5)cc4)cc3)nc2c1 [Example 64, 2-({4-[4-(1H-pyrazol-5-yl)phenoxy]phenoxy}methyl)-1,3-benzothiazole] | 0.0442 | ≥ 5 |
| Cn1ccc(COc2ccc(Oc3ccc(-c4ccn[nH]4)cc3)cc2)n1 [Example 65, 1-methyl-3-({4-[4-(1H-pyrazol-5-yl)phenoxy]phenoxy}methyl)-1H-pyrazole] | 0.0129 | ≥ 5 |
